In US6294672A, “Indole and azaindole inhibitors of Fructose-1,6-biphosphatase” (Metabasis Therapeutics, Inc., priority 2000, dated 2001):
Like-named read-outs stand apart in the source and are kept apart here.

Tests used:
[1] = system: glucose production from lactate/pyruvate in isolated rat hepatocytes; experiment: Inhibition of Gluconeogenesis in Rat Hepatocytes; format: cell-based
Method: Hepatocytes were prepared from overnight fasted Sprague-Dawley rats (250-300 g) according to the procedure of Berry and Friend (Berry, M. N., Friend, D. S., J. Cell. Biol. 1969, 43, 506-520) as modified by Groen (Groen, A. K., Sips, H. J., Vervoorn, R. C., Tager, J. M., Eur. J. Biochem. 1982, 122, 87-93). Hepatocytes (75 mg wet weight/mL) were incubated in 1 mL Krebs-bicarbonate buffer containing 10 mM Lactate, 1 mM pyruvate, 1 mg/mL BSA, and test compound concentrations from 1 to 500 μM. Incubations were carried out in a 95% oxygen, 5% carbon dioxide atmosphere in closed, 50-mL Falcon tubes submerged in a rapidly shaking water bath (37° C.). After 1 hour, an aliquot (0.25 mL) was removed, transferred to an Eppendorf tube and centrifuged. 50 μL of supernatant was then assayed for glucose content using a Sigma Glucose Oxidase kit as per the manufacturer's instructions.

rat liver FBPase = molecular target: T1, rat liver FBPase (Rattus norvegicus, UniProt P19112); experiment: In vitro Inhibition of Rat Liver FBPase; format: biochemical; conditions: assayed as for human liver FBPase
T1 construct: made in house; host or cells: E. coli BL21 (transformed strain from Dr. M. R. El-Maghrabi, SUNY Stony Brook)
T1 sequence (P19112 2-363 limits assumed): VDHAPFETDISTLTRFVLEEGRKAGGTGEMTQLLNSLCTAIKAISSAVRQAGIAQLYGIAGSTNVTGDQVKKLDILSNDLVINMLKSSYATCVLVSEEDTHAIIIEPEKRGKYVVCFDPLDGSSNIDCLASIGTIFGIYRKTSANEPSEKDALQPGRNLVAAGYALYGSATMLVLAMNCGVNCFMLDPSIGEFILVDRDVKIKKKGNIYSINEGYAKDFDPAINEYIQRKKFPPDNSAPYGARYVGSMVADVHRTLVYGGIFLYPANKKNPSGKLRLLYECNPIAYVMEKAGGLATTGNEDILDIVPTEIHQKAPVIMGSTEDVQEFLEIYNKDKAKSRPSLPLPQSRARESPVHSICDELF
Method: (§1) E. coli strain BL21 transformed with a human liver FBPase-encoding plasmid was obtained from Dr. M. R. El-Maghrabi at the State University of New York at Stony Brook. hIFBPase was typically purified from 10 liters of E. coli culture as described (M. Gidh-Jain et al., The Journal of Biological Chemistry 1994, 269, 27732-27738). Enzymatic activity was measured spectrophotometrically in reactions that coupled the formation of product (fructose 6-phosphate) to the reduction of dimethylthiazoldiphenyltetrazolium bromide (MTT) via NADP and phenazine methosulfate (PMS), using phosphoglucose isomerase and glucose 6-phosphate dehydrogenase as the coupling enzymes. Reaction mixtures (200 μL) were made up in 96-well microtitre plates, and consisted of 50 mM Tris-HCl, pH 7.4, 100 mM KCl, 5 mM EGTA, 2 mM MgCl2, 0.2 mM NADP, 1 mg/mL BSA, 1 mM MTT, 0.6 mM PMS, 1 unit/mL phosphoglucose isomerase, 2 units/mL glucose 6-phosphate dehydrogenase, and 0.150 mM substrate (fructose 1,6-bisphosphate). Inhibitor concentrations were varied from 0.01 μM to 10 μM. Reactions were started by the addition of 0.002 units of pure hlFBPase and were monitored for 7 minutes at 590 nm in a Molecular Devices Plate Reader (37° C.).
(§2) E. coli strain BL21 transformed with a rat liver FBPase-encoding plasmid is obtained from Dr. M. R. El-Maghrabi at the State University of New York at Stony Brook, and purified as described (El-Maghrabi, M. R., and Pilkis, S. J. Biochem. Biophys. Res. Commun. 1991, 176, 137-144). Mouse liver FBPase is obtained by homogenizing freshly isolated mouse liver in 100 mM Tris-HCl buffer, pH 7.4, containing 1 mM EGTA, and 10% glycerol. The homogenate is clarified by centrifugation, and the 45-75% ammonium sulfate fraction prepared. This fraction is redissolved in the homogenization buffer and desalted on a PD-10 gel filtration column (Biorad) eluted with same. This partially purified fraction is used for enzyme assays. Both rat liver and mouse liver FBPase are assayed as described for human liver FBPase. Generally, as reflected by the higher IC50 values, the rat and mouse liver enzymes are less sensitive to inhibition by the compounds tested than the human liver enzyme.

[2] = molecular target: T2, human liver FBPase (hlFBPase) (Homo sapiens, UniProt P09467); experiment: Inhibition of Human Liver FBPase; format: biochemical
T2 construct: made in house; host or cells: E. coli BL21 (transformed strain from Dr. M. R. El-Maghrabi, SUNY Stony Brook)
T2 sequence (P09467 2-338 limits assumed): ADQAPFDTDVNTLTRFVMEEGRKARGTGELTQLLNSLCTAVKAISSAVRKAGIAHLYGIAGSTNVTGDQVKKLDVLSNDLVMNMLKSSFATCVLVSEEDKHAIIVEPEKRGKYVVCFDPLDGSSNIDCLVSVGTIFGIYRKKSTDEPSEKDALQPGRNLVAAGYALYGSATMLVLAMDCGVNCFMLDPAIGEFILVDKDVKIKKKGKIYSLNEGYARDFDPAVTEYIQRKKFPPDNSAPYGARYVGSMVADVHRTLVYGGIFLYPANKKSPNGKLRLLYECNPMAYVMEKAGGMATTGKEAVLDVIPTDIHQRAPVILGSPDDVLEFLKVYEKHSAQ
Method: as §1, with “Enzymatic” for “E. coli strain BL21 transformed with a human liver FBPase-encoding plasmid was obtained from Dr. M. R. El-Maghrabi at the State University of New York at Stony Brook. hIFBPase was typically purified from 10 liters of E. coli culture as described (M. Gidh-Jain et al., The Journal of Biological Chemistry 1994, 269, 27732-27738). Enzymatic”

Mouse liver FBPase = molecular target: T3, Mouse liver FBPase (Mus musculus, UniProt Q9QXD6); experiment: In vitro Inhibition of Mouse Liver FBPase; format: biochemical; conditions: partially purified mouse liver fraction, assayed as for human liver FBPase
T3 construct: Mouse liver FBPase is obtained by homogenizing freshly isolated mouse liver; from tissue; host or cells: freshly isolated mouse liver; 45-75% ammonium sulfate fraction, desalted
T3 sequence (Q9QXD6 2-338 limits assumed): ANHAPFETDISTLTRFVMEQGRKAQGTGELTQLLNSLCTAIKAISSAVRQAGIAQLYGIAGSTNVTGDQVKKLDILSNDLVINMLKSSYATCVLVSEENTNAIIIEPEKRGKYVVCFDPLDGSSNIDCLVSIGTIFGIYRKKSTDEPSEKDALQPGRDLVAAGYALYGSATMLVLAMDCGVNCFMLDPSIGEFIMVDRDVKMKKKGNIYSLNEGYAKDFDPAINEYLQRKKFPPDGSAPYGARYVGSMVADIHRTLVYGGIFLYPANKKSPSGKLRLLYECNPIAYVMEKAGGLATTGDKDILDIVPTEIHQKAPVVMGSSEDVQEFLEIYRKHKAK
Method: as §1, §2

[3] = 0.150 mM fructose 1,6-bisphosphate, pH 7.4, 37° C., read-out: HL FBPase IC50
[4] = Rattus norvegicus, Hepatocyte, 1 hour

SMILES	IC50 (rat liver FBPase) [µM]	IC50 [2, 3] [µM]	IC50 (Mouse liver FBPase) [µM]	inhibition at 500 µM [1, 4] [%]	further results
COc1ccc2[nH]c(C(=O)NCP(=O)(O)O)cc2c1 [Compound 1.3, Disodium 5-methoxy-2-(phosphonomethylaminocarbonyl)indole]	–	60.6	–	3.4	–
Nc1cccc2c(CCc3ccccc3)c(C(=O)NCP(=O)(O)O)[nH]c12 [Compound 3.1, 7-amino-3-(2-phenethyl)-2-(phosphonomethylaminocarbonyl)indole]	–	–	–	41.5	–
Nc1cccc2c(-c3ccccc3)c(C(=O)NCP(=O)(O)O)[nH]c12 [Compound 2.1, 7-amino-3-phenyl-2-(phosphonomethylaminocarbonyl)indole]	–	–	–	–	dose-dependent inhibition of hlFBPase (FIG. 2) [2]: dose-dependent inhibition
Nc1ncnc2c1ncn2[C@@H]1O[C@H](COP(=O)(O)O)[C@@H](O)[C@H]1O [adenosine monophosphate (AMP), adenosine monophosphate, reference compound]	–	–	–	–	IC50 ([2]; under the reaction conditions of Example A, read-out: concentration required to inhibit half of the hlFBPase activity): 1 µM
CC(C)Cn1c(-c2ccc(P(=O)(O)O)o2)cc2c(N)cccc21 [Compound 9.1, N^1-isobutyl-4-amino-2-(2-(5-phosphone)furanyl)indole]	–	32.5	–	57	dose dependent inhibition of glucose production in rat hepatocytes (FIG. 3) [1]: inhibit glucose production in a dose dependent manner
O=C(NCP(=O)(O)O)c1cn2ccccc2n1 [Compound 12.1, 9-aza-2-phosphonomethylaminocarbonylindole]	–	90	–	–	–

More lines, main results first:

IC50 (rat liver FBPase) [µM]	IC50 [2, 3] [µM]	IC50 (Mouse liver FBPase) [µM]	SMILES	inhibition at 500 µM [1, 4] [%]	further results
90	10	–	Nc1cccn2c(-c3ccccc3)c(COCP(=O)(O)O)nc12 [Compound 11.5, 7-amino-9aza-3-phenyl-2-phosphonomethoxymethyl-indole]	–	inhibition at 250 µM ([1]; Rattus norvegicus, Hepatocyte, 250 μM, 1 hour): 50%
–	10	–	O=P(O)(O)COCc1nc2ccccn2c1-c1ccccc1 [Compound 11.3, 9-aza-3-phenyl-2-phosphono-methoxymethylindole]	–	–
> 20	8.67	> 20	O=P(O)(O)c1ccc(-c2[nH]c3ccccc3c2Br)o1 [Compound 7.1, 2-(2-(5-phosphono)furanyl)-3-bromoindole]	45.4	–
–	10	–	Nc1cccc2cc(C(=O)NCP(=O)(O)O)[nH]c12 [Compound 1.1, 7-Amino-2-(phosphonomethylaminocarbonyl)indole]	–	dose-dependent inhibition of hlFBPase (FIG. 2) [2]: dose-dependent inhibition
–	4.5	–	O=P(O)(O)c1ccc(-c2cn3cc(Cl)ccc3n2)o1 [Compound 14.2, 9-Aza-5-chloro-2-(2-(5-phosphono)furanyl)indole]	–	–
–	2.5	–	CC(C)Cc1c(-c2ccc(P(=O)(O)O)o2)[nH]c2ccc(Cl)cc12 [Compound 10.1, 5-chloro-3-isobutyl-2-(2-(5-phosphono)furanyl)indole]	–	–
> 20	8.8	> 20	O=P(O)(O)c1ccc(-c2cc3ccccc3[nH]2)o1 [Compound 5.1, 2-(2-(5-phosphono)furanyl)indole]	39.6	–
> 25	1.6	> 30	Cc1cccn2c(CC(C)C)c(-c3ccc(P(=O)(O)O)o3)nc12 [Compound 14.4, 9-Aza-3-isobutyl-7-methyl-2-(2-(5-phosphono)furanyl)indole]	–	–
> 20	10.7	> 20	CC(C)Cn1c(-c2ccc(P(=O)(O)O)o2)cc2ccccc21 [Compound 6.1, 1-isobutyl-2-(2-(5-phosphono)furanyl)indole]	64.4	dose dependent inhibition of glucose production in rat hepatocytes (FIG. 3) [1]: inhibit glucose production in a dose dependent manner
> 20	8.5	> 20	O=P(O)(O)c1ccc(-c2[nH]c3ccccc3c2-c2ccccc2)o1 [Compound 7.2, 3-phenyl-2-(2-(5-phosphono)furanyl)indole]	–	–
